# Experimental data from US10294234B2, “HIV inhibitor compounds” (priority 2017, dated 2019).
# Where two headings read alike, the source gives them in different places.
# Assays:
# [1] = Method: Liver Microsomal Stability Protocol
# Test compounds and one control compound (verapamil) were tested in 3 different species in duplicate sets.
# Test compound concentration: 1 uM; Protein concentration: 0.5 mg/mL (for dog, rat, and human liver microsomes); Cofactor: NADPH-Regenerating system (NRS) solution; Time-points: 2, 12, 25, 45, and 65 minutes.
# Reaction composition (in each incubation well) contains:
# After plates were vortexed, they were centrifuged for 30 minutes to remove proteins. About 100 μL supernatant was removed to a new plate and diluted with 150 μL water. About 20 μL of the mixture was injected into LC/MS/MS system to monitor the compound's response. In vitro measured t1/2 was used to calculate Clint values.
# [2] = system: HIV-1 (IIIB) in MT-4 cells; test: MT-4 HIV assay; assay type: cell-based
# Procedure, shortened: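 Antiviral activity was read by Cell Titer Glo after a 5-day, 37 °C culture of MT-4 cells pre-infected with a 1:250 dilution of HIV-1 (IIIB). Compounds were tested as threefold dilution series in complete RPMI. Controls were no drug, mock infection and 5 uM AZT.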
# [3] = Human immunodeficiency virus 1, MT4, 120 h, HIV-1 (IIIB), MT-4 cells, 5 days, Cell Titer Glo, read-out: EC50
# [4] = human liver microsomes 0.5 mg/mL, 1 uM compound, NADPH
# [5] = rat liver microsomes 0.5 mg/mL, 1 uM compound, NADPH
"Human Pred Cl. [1, 4] [L/H/kg]","Rat. Pred. Cl. [1, 5] [L/H/kg]",SMILES,"Human Pred Cl. ([1]; human, microsomes) [L/H/kg]","Rat. Pred. Cl. ([1]; rat, microsomes) [L/H/kg]","EC50 [2, 3] [nM]","EC50 ([2]; HIV-1 (IIIB), MT-4 cells, 5 days, Cell Titer Glo, read-out: EC50) [nM]","EC50 ([2]; Human immunodeficiency virus 1, MT4, 120 h) [nM]"
–,–,"COC(=O)N[C@H](C(=O)N[C@@H](Cc1ccc(C#Cc2ccc(N3CC4CCC(C3)N4S(C)(=O)=O)nc2)cc1)[C@@H](O)CN(Cc1c(F)cc(-c2cnn(C(F)F)c2)cc1F)NC(=O)[C@@H](NC(=O)OC)C(C)(C)C(F)(F)F)C(C)(C)C(F)(F)F [Example 70, Methyl ((5S,8S,9S,14S)-11-(4-(1-(difluoromethyl)-1H-pyrazol-4-yl)-2,6-difluorobenzyl)-16,16,16-trifluoro-9-hydroxy-15,15-dimethyl-8-(4-((6-(8-(methylsulfonyl)-3,8-diazabicyclo[3.2.1]octan-3-yl)pyridin-3-yl)ethynyl)benzyl)-3,6,13-trioxo-5-(1,1,1-trifluoro-2-methylpropan-2-yl)-2-oxa-4,7,11,12-tetraazahexadecan-14-yl)carbamate]",<0.11,<0.18,4.79,–,–
–,–,"COC(=O)N[C@H](C(=O)N[C@@H](Cc1ccc(C#Cc2cnc(N3CC4CCC(C3)N4C3COC3)nc2)cc1)[C@@H](O)CN(Cc1c(F)cc(-c2ccn(C(F)F)n2)cc1F)NC(=O)[C@@H](NC(=O)C1CC1)C(C)(C)C(F)(F)F)C(C)(C)C(F)(F)F [Example 186, Methyl ((2S)-1-(((2S,3S)-4-(2-((S)-2-(cyclopropanecarboxamido)-4,4,4-trifluoro-3,3-dimethylbutanoyl)-1-(4-(1-(difluoromethyl)-1H-pyrazol-3-yl)-2,6-difluorobenzyl) hydrazinyl)-3-hydroxy-1-(4-((2-(8-(oxetan-3-yl)-3,8-diazabicyclo[3.2.1]octan-3-yl)pyrimidin-5-yl)ethynyl)phenyl)butan-2-yl)amino)-4,4,4-trifluoro-3,3-dimethyl-1-oxobutan-2-yl)carbamate]",<0.11,–,4.74,–,–
<0.11,<0.18,"COC(=O)N[C@H](C(=O)N[C@@H](Cc1ccc(C#Cc2cnc(N3CC4CCC(C3)N4C3COC3)nc2)cc1)[C@@H](O)CN(Cc1c(F)cc(-c2cn(C(F)F)cn2)cc1F)NC(=O)[C@@H](NC(=O)OC)C(C)(C)C(F)(F)F)C(C)(C)C(F)(F)F [Example 133, Methyl ((5S,10S,11S,14S)-8-(4-(1-(difluoromethyl)-1H-imidazol-4-yl)-2,6-difluorobenzyl)-16,16,16-trifluoro-10-hydroxy-15,15-dimethyl-11-(4-((2-(8-(oxetan-3-yl)-3,8-diazabicyclo[3.2.]octan-3-yl)pyrimidin-5-yl)ethynyl)benzyl)-3,6,13-trioxo-5-(1,1,1-trifluoro-2-methylpropan-2-yl)-2-oxa-4,7,8,12-tetraazahexadecan-14-yl)carbamate]",–,–,–,3.44,–
0.56,3.2,"COC(=O)N[C@H](C(=O)N[C@@H](Cc1ccc(C#Cc2ccc(N3C[C@@H]4CN(C5COC5)C[C@@H]4C3)nc2)cc1)[C@@H](O)CN(Cc1c(F)cc(-c2ccn(C(F)F)n2)cc1F)NC(=O)[C@@H](NC(=O)OC)C(C)(C)C(F)(F)F)C(C)(C)C(F)(F)F [Example 165, Methyl ((5S,8S,9S,14S)-11-(4-(1-(difluoromethyl)-1H-pyrazol-3-yl)-2,6-difluorobenzyl)-16,16,16-trifluoro-9-hydroxy-15,15-dimethyl-8-(4-((6-((3aR,6aS)-5-(oxetan-3-yl)hexahydropyrrolo[3,4-c]pyrrol-2(1H)-yl)pyridin-3-yl)ethynyl)benzyl)-3,6,13-trioxo-5-(1,1,1-trifluoro-2-methylpropan-2-yl)-2-oxa-4,7,11,12-tetraazahexadecan-14-yl)carbamate]",–,–,4.05,–,–
–,–,"COC(=O)N[C@H](C(=O)N[C@@H](Cc1ccc(C#Cc2ccc(N3CC4CCC(C3)N4C3COC3)nc2)cc1)[C@@H](O)CN(Cc1c(F)cc(-c2ccc(F)cn2)cc1F)NC(=O)[C@@H](NC(=O)OC)C(C)(C)C(F)(F)F)C(C)(C)C(F)(F)F [Example 102, Methyl ((5S,8S,9S,14S)-11-(2,6-difluoro-4-(5-fluoropyridin-2-yl)benzyl)-16,16,16-trifluoro-9-hydroxy-15,15-dimethyl-8-(4-((6-(8-(oxetan-3-yl)-3,8-diazabicyclo [3.2.1]octan-3-yl)pyridin-3-yl)ethynyl)benzyl)-3,6,13-trioxo-5-(1,1,1-trifluoro-2-methylpropan-2-yl)-2-oxa-4,7,11,12-tetraazahexadecan-14-yl)carbamate]",0.18,<0.18,5.68,–,–
–,–,"CCC(=O)N[C@H](C(=O)NN(Cc1c(F)cc(-c2ccn(C(F)F)n2)cc1F)C[C@H](O)[C@H](Cc1ccc(C#Cc2ccc(N3CC4CCC(C3)N4C3COC3)nc2)cc1)NC(=O)[C@@H](NC(=O)OC)C(C)(C)C(F)(F)F)C(C)(C)C [Example 185, Methyl ((2S)-1-(((2S,3S)-4-(1-(4-(1-(difluoromethyl)-1H-pyrazol-3-yl)-2,6-difluorobenzyl)-2-((S)-3,3-dimethyl-2-propionamidobutanoyl)hydrazinyl)-3-hydroxy-1-(4-((6-(8-(oxetan-3-yl)-3,8-diazabicyclo[3.2.1]octan-3-yl)pyridin-3-yl)ethynyl)phenyl)butan-2-yl)amino)-4,4,4-trifluoro-3,3-dimethyl-1-oxobutan-2-yl)carbamate]",0.32,0.31,2.58,–,–
–,–,"COC(=O)N[C@H](C(=O)N[C@@H](Cc1ccc(C#Cc2ccc(N3CC4CCC(C3)N4C3COC3)nc2)cc1)[C@@H](O)CN(Cc1c(F)cc(-c2ccc(N3CC4CCC(C3)N4C3COC3)nc2)cc1F)NC(=O)[C@@H](NC(=O)OC)C(C)(C)C(F)(F)F)C(C)(C)C(F)(F)F [Example 147, Methyl ((5S,8S,9S,14S)-11-(2,6-difluoro-4-(6-(8-(oxetan-3-yl)-3,8-diazabicyclo[3.2.1]octan-3-yl)pyridin-3-yl)benzyl)-16,16,16-trifluoro-9-hydroxy-15,15-dimethyl-8-(4-((6-(8-(oxetan-3-yl)-3,8-diazabicyclo [3.2.1]octan-3-yl)pyridin-3-yl)ethynyl)benzyl)-3,6,13-trioxo-5-(1,1,1-trifluoro-2-methylpropan-2-yl)-2-oxa-4,7,11,12-tetraazahexadecan-14-yl)carbamate]",<0.11,–,6.79,–,–
–,–,"COC(=O)N[C@H](C(=O)N[C@@H](Cc1ccc(C#Cc2cnc(N3CC4CCC(C3)N4C3COC3)cc2C)cc1)[C@@H](O)CN(Cc1c(F)cc(-c2cnn(C(F)F)c2)cc1F)NC(=O)[C@@H](NC(=O)OC)C(C)(C)C(F)(F)F)C(C)(C)C(F)(F)F [Example 154, Methyl ((5S,8S,9S,14S)-11-(4-(1-(difluoromethyl)-1H-pyrazol-4-yl)-2,6-difluorobenzyl)-16,16,16-trifluoro-9-hydroxy-15,15-dimethyl-8-(4-((4-methyl-6-(8-(oxetan-3-yl)-3,8-diazabicyclo[3.2.1]octan-3-yl)pyridin-3-yl)ethynyl)benzyl)-3,6,13-trioxo-5-(1,1,1-trifluoro-2-methylpropan-2-yl)-2-oxa-4,7,11,12-tetraazahexadecan-14-yl)carbamate]",<0.11,<0.18,4.81,–,–
–,–,"COC(=O)N[C@H](C(=O)N[C@@H](Cc1ccc(C#Cc2ccc(N3CC4COCC(C3)N4C)nc2)cc1)[C@@H](O)CN(Cc1c(F)cc(-c2ccn(C(F)F)n2)cc1F)NC(=O)[C@@H](NC(=O)OC)C(C)(C)C(F)(F)F)C(C)(C)C(F)(F)F [Example 44, Methyl ((5S,8S,9S,14S)-11-(4-(1-(difluoromethyl)-1H-pyrazol-3-yl)-2,6-difluorobenzyl)-16,16,16-trifluoro-9-hydroxy-15,15-dimethyl-8-(4-((6-(9-methyl-3-oxa-7,9-diazabicyclo[3.3.1]nonan-7-yl)pyridin-3-yl)ethynyl)benzyl)-3,6,13-trioxo-5-(1,1,1-trifluoro-2-methylpropan-2-yl)-2-oxa-4,7,11,12-tetraazahexadecan-14-yl)carbamate]",0.13,2.54,3.97,–,–

SMILES,"Human Pred Cl. [1, 4] [L/H/kg]","Rat. Pred. Cl. [1, 5] [L/H/kg]","Human Pred Cl. ([1]; human, microsomes) [L/H/kg]","Rat. Pred. Cl. ([1]; rat, microsomes) [L/H/kg]","EC50 [2, 3] [nM]","EC50 ([2]; HIV-1 (IIIB), MT-4 cells, 5 days, Cell Titer Glo, read-out: EC50) [nM]","EC50 ([2]; Human immunodeficiency virus 1, MT4, 120 h) [nM]"
"COC(=O)N[C@H](C(=O)N[C@@H](Cc1ccc(C#Cc2cnc(N3CCNC(=O)C3)nc2)cc1)[C@@H](O)CN(Cc1c(F)cc(-c2ccn(C(F)F)n2)cc1F)NC(=O)[C@@H](NC(=O)OC)C(C)(C)C(F)(F)F)C(C)(C)C(F)(F)F [Example 123, Methyl ((5S,8S,9S,14S)-11-(4-(1-(difluoromethyl)-1H-pyrazol-3-yl)-2,6-difluorobenzyl)-16,16,16-trifluoro-9-hydroxy-15,15-dimethyl-3,6,3-trioxo-8-(4-((2 (3-oxopiperazin-1-yl)pyrimidin-5-yl)ethynyl)benzyl)-5-(1,1,1-trifluoro-2-methylpropan-2-yl)-2-oxa-4,7,11,12-tetraazahexadecan-14-yl)carbamate]",<0.11,<0.18,–,–,–,–,4.16
